Data reported in patent US5360790A, “Method and formulations for the therapy of acute renal failure” (The Regents of the University of Michigan, priority 1993, dated 1994).

Legend:
Format in all cases: in vivo, rat
Sprague Dawley rats = assay: BUN and serum creatinine time course after renal ischemia; conditions: single dose EGF within 1-1.5 hours of reperfusion after 30 minutes bilateral renal ischemia; entire 7-day period
Experimental: (§1) Sprague Dawley rats (250-325 g) were anesthetized with a short-acting barbiturate, the abdominal cavity was exposed, and both left and right renal arteries were identified and clamped for 30 minutes. The clamps were released and perfusion to the kidneys reestablished. At time intervals of 24, 48, and 72 hours after ischemia and reperfusion, ^3 H-thymidine incorporation into kidneys, as well as blood urea nitrogen (BUN) and serum creatinine levels. To obtain a complete time course, some animals were allowed to recover for 7 days after renal ischemia and blood samples were then obtained daily for BUN or serum creatinine measurements.
(§2) This dose of EGF is substantially lower than those employed in previously reported studies that administered EGF systemically. At varying time points after reperfusion, measurements of ^3 H-thymidine incorporation into the kidneys and BUN, and serum creatinine levels were determined.

renal tubule cells [1] = assay: 3H-thymidine incorporation into kidneys after bilateral renal artery clamping (ischemic acute renal failure)
Experimental: as §1, §2

renal tubule cells [2] = assay: [3H] thymidine incorporation into renal cortex after HgCl2 (nephrotoxic acute renal failure); conditions: for [3H] Thymidine Incorporation: EGF 20 μg sc 2-4 h after nephrotoxin
Experimental: (§3) At time intervals of 24, 30, 48, and 72 hours after toxin administration, [^3 H] thymidine incorporation into renal cortex, as well as blood urea nitrogen (BUN) and serum creatinine levels, were determined with methods known and practiced in the art. To obtain a complete time course for the BUN and serum creatinine levels, some animals were allowed to recover for as long as 12 days after HgCl2 administration, and blood samples were obtained daily for BUN and serum creatinine levels.

renal tubule cells [3] = assay: Histoautoradiography of 3H-thymidine labeled kidney cells after renal ischemia
Text: To localize and identify the cells incorporating the radiolabeled thymidine within the kidney, histoautoradiography of kidney samples was also accomplished. For quantitative evaluation, a computerized operator-interactive system was used. Sections were examined at 276 magnification, and 10-15 fields were counted in the cortex and outer and inner stripes of the outer medulla in each section for an individual animal. The cell type of the labeled cells was identified as either tubular or interstitial.
At varying time points after reperfusion, measurements of ^3 H-thymidine incorporation into the kidneys and BUN, and serum creatinine levels were determined.

renal tubule cells [4] = assay: Histoautoradiography of [3H] thymidine labeled kidney cells after HgCl2
Experimental: as §3
Histoautoradiographic studies were performed to determine the type of cells labeled with [^3 H] thymidine after HgCl2 exposure. Kidney sections from rats at 48 or 72 h after toxic administration were used for histoautoradiographic analysis. Labeling was confined to the nuclei. On average, 97.9% of the labeled cells were tubule cells, and 2.1% of the labeled cells were interstitial cells in the 60 examined fields. In control rats undergoing sham injection, 98.4% of labeled cells were tubule, and 1.6% were interstitial in 90 examined fields.

Male Sprague-Dawley rats [5] = assay: BUN and serum creatinine time course after HgCl2 (nephrotoxic acute renal failure)
Experimental: as §3

Male Sprague-Dawley rats [6] = assay: Histological score of tubule cell injury after HgCl2; conditions: 24 h after HgCl2; n=120 fields from 3 animals; P=NS vs non-EGF-treated
Experimental: Histological grading was assessed at 24 h, a time at which the peak of HgCl2 -induced toxic renal injury occurs and just before the accelerated regeneration repair phase. At 24 h, the mean histological scores in the inner cortex and outer stripe were 2.92±0.13 and 4.70±0.07, respectively, in the nephrotoxic non-EGF-treated rats vs. scores of 3.25±0.18 and 4.65±0.08, respectively, in the nephrotoxic EGF-treated rats (n=120 fields from 3 animals in each treatment group, P=NS for both scores). At 24 h after HgCl2, extensive necrosis was present in proximal tubule segments with no difference in the degree of tubule cell necrosis observed histologically between the EGF-treated and nontreated groups receiving HgCl2.

[7] = EGF-treated postischemic rats at 24 hours
[8] = postischemic kidneys at 24 hours after EGF administration
[9] = EGF-treated rats, 48 h after HgCl2 injection, 60 fields
[10] = peak at 3 days after HgCl2 injection, EGF 20 μg sc, P<0.001 vs nontreated

## epidermal growth factor [EGF]
Sprague Dawley rats
  BUN levels of EGF-treated animals: significantly lower
  creatinine levels of EGF-treated animals: significantly lower
Renal tubule cells [1]; EGF treatment of rats undergoing sham ischemia, P=NS, n=3
  3H-thymidine incorporation, sham ischemia: did not show any increase
Renal tubule cells [1]; single dose EGF 1-1.5 hours after reperfusion, 24, 48, 72 hours of reperfusion after 30 minutes bilateral renal artery clamping
  renal thymidine incorporation compared with control nontreated ischemia values: significantly increased renal thymidine incorporation
Renal tubule cells [2]; 0 h, rats given 5 mg/kg HgCl2, mean (SE 0.03 printed)
  [3H] Thymidine Incorporation: 0.12 dpm × 10^4 /mg DNA
Renal tubule cells [2]; 24 h after 5 mg/kg HgCl2, mean (SE 1.28 printed)
  [3H] Thymidine Incorporation: 13.81 dpm × 10^4 /mg DNA
Renal tubule cells [2]; 48 h after 5 mg/kg HgCl2, mean (SE 19.52 printed)
  [3H] Thymidine Incorporation: 80.52 dpm × 10^4 /mg DNA
Renal tubule cells [2]; 72 h after 5 mg/kg HgCl2, mean (SE 13.80 printed)
  [3H] Thymidine Incorporation: 116.24 dpm × 10^4 /mg DNA
Renal tubule cells [2]; single dose EGF 2 or 4 h after HgCl2, at 24, 30, 48 and 72 h
  renal thymidine incorporation compared with non-EGF-treated animals receiving the nephrotoxin: higher rates of renal thymidine incorporation
Renal tubule cells [3]; [7]
  labeled cells identified as interstitial cells: 1.9%
  labeled cells identified as tubule: 98.1%
  labeled interstitial cells, absolute number: 61
  labeled tubule cells, absolute number: 3,183
Renal tubule cells [3]; [8]
  distribution of labeled tubule cells: cortex: 27%
  distribution of labeled tubule cells: outer stripe of the outer medulla: 68%
Renal tubule cells [4]; 24 h after HgCl2, renal cortex and outer medulla, n=3 rats and 60 fields, P<0.02 vs nontreated
  number of tubule cells incorporating [3H] thymidine: 7.5±1.8 labeled cells/field
Renal tubule cells [4]; 48 h after HgCl2, renal cortex and outer medulla, n=3 rats and 60 fields
  number of labeled tubule cells: 20.9±2.1 cells/field
Renal tubule cells [4]; [9]
  labeled cells identified as interstitial cells: 3.7%
  labeled cells identified as tubule: 96.3%
Male Sprague-Dawley rats [5]; after HgCl2
  return to near normal BUN and serum creatinine, earlier than in non-EGF-treated animals: 4 days
Male Sprague-Dawley rats [5]; day after HgCl2 administration
  return to near normal BUN and serum creatinine levels: 8 days
Male Sprague-Dawley rats [5]; [10]
  peak BUN level: 213 ± 23 mg/dL
  peak serum creatinine level: 6.54 ± 0.72 mg/dL
Male Sprague-Dawley rats [6]
  mean histological score, inner cortex: 3.25±0.18
  mean histological score, outer stripe: 4.65±0.08
